{"source": "patent US20250382322A1", "about": "“DIAGNOSTICS FOR DETECTING ECTO-5'-NUCLEOTIDASE (CD73)” (EBERHARD KARLS UNIVERSITÄT TÜBINGEN, priority 2022, published 2025)", "key": {"[1]": {"target": "T1, recombinant soluble human CD73 (Homo sapiens, UniProt P21589, T376A)", "T1 construct": "mature human CD73 (residues 27-549) fused to 6×His-tag at the C-terminus; 6xHis (C); made in house; host or cells: Spodoptera frugiperda Sf9 insect cells (baculovirus, pAcGP67B vector)", "T1 sequence (P21589 27-549 T376A)": "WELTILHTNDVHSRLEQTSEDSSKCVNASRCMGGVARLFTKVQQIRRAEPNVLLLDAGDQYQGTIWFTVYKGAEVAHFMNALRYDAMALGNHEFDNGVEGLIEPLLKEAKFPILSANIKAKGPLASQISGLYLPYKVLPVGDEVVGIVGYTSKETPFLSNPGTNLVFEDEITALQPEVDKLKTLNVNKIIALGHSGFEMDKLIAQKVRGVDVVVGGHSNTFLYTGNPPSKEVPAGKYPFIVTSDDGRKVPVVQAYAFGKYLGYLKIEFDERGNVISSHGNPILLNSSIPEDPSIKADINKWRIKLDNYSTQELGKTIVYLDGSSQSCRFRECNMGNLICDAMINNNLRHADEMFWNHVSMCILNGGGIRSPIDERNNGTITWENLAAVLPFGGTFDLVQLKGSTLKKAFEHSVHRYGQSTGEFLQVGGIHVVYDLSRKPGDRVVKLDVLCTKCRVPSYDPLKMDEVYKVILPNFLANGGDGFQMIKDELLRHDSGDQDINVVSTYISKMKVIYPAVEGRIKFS", "experiment": "CD73 enzyme inhibition assay with [2,8-3H]AMP, soluble human CD73", "type": "biochemical", "settings": "[2,8-3H]AMP (5 μM) as substrate; Ki from IC50 by Cheng-Prusoff; read-out: Human soluble CD73 Ki ± SEM", "method": "Compound 2b, its precursor 1, and 20 were investigated for their CD73-inhibitory potency using tritium-labeled AMP as a substrate.^20 After incubation with CD73, non-hydrolyzed substrate and inorganic phosphate were precipitated using a solution of lanthanum chloride, and the precipitate was separated from the solution containing the reaction product [2,8-^3H]adenosine by filtration through GF/B glass fiber filters (WhatmanTM GE Healthcare, Chicago, IL, USA) using a cell harvester (M-48, Brandel, Gaitherburg, MD, USA). The filtrates (ca. 1.8 mL each) were transferred to scintillation vials, scintillation cocktail ULTIMA Gold XR (PerkinElmer, Waltham, MA, USA) was added (5 mL), and the radioactivity esd quantified by scintillation counting. CD73 preparations were (1) recombinant soluble human CD73,^13 (2) recombinant soluble rat CD73,^21 both expressed in Spodoptera frugiperda 9 (Sf) cells, (3) membrane preparations of MDA-MB-231 cells,^16 a human triple-negative breast cancer cell line with high expression of CD73,^18 and (4) membrane preparations of the 4T1.2 cell line, a mouse CD73-expressing breast cancer cell line.^22 The potency of the compounds was determined by measurements of full concentration-inhibition curves. K values were calcuated from the obtained IC50 values employing the Cheng-Prusoff equation.^23\nHuman soluble CD73 was expressed in Spodoptera frugiperda (Sf9) insect cells and purified as previously described.^16 The cDNA encoding for the mature human CD73 (residues 27-549) fused to 6×His-tag at the C-terminus (Genbank accession no. NM_002526) corresponding to the natural variant T376A (P21589/VAR_022091, UniProtKB/Swiss-Prot) was ligated into the pAcGP67B vector. For transfection, 1 μl of the recombinant vector (1000 ng/μl) mixed with 2.5 μl of baculovirus genomic DNA ProEasy™ (AB vector, CA, USA) was used to transfect Sf9 cells grown in Insect-XPRESS™ medium (#BE12-7300, Lonza, Switzerland) supplemented with 10 mg/l gentamicin. […]"}, "[2]": {"test_system": "s.c. AsPC-1 xenografts", "experiment": "In vivo PET imaging in AsPC-1 tumor bearing mice", "design": "species or system NSG mice", "method": "Animal models. All animal experiments were performed in accordance with the legal requirements of the European Community (Directive 2010/63/EU) and the corresponding German Animal Welfare Law (TierSchG, TierSchVersV) and were approved by the local authorizing agency (State Office for Nature, Environment and Consumer Protection North Rhine-Westphalia). MDA-MB-231 or AsPC-1 cells were cultivated in RPMI supplemented with 10% fetal calf serum and 100 U/mL penicillin and 100 μg/mL streptomycin. 5×10^6 MDA-MB-231 or AsPC-1 cells were injected subcutaneously into the shoulder region of 10 to 12 week old NSG mice (NOD.Cg-Prkdcscidll2rgtm1Wjl/SzJ, Charles River Laboratories). […]\nIn vivo Imaging. […] Three-dimensional volumes of interest (VOIs) were defined over the respective organs in CT data sets, transferred to the coregistered PET data, and analyzed quantitatively. Regional uptake was calculated as a percentage of injected dose by dividing counts per milliliter in the VOI by total counts in the mouse multiplied by 100 (% ID/mL).\n(§1) Ex vivo gamma counter measurements. […] Ex vivo biodistribution of radioactivity was analyzed by scintillation counting (Wizard2 gamma counter, Perkin-Elmer Life Science) and the radioactivity in respective organs decay-corrected and calculated as % ID per gram tissue (% ID/g)."}, "[3]": {"experiment": "Determination of log D7.4 (1-octanol/PBS)", "type": "physicochemical", "method": "(§2) Determination of the log D7.4-value of [^18F]2. The lipophilicity of [^18F]2 was determined following the procedure described by Prante et al.^17 Triazole [^18F]2 (˜400 kBq) in PBS buffer (10 μL, pH 7.4) was added to PBS buffer (590 μL, pH 7.4) and octan-1-ol (600 μL). The two-layer mixture was shaken for 3 min on a vortex mixer at RT and centrifuged (3000 rpm) for 5 min. The main part of the octanol layer (400 μL) was collected carefully and added to a new tube with PBS buffer (400 μL, pH 7.4). The two-layer mixture was shaken again for 10 min and centrifuged for 5 min (3000 rpm). Three samples were prepared and two aliquots (á 100 μL) of both layers were measured in a g-counter 2480 Wizard2 (Perkin-Elmer, Waltham, USA). The partition coefficient was determined by dividing cpm(octanol) by cpm(PBS) and indicated as log D7.4 (exp.).\nas §2, with “D7,4-value” for “D7.4-value”, “[^18F]PSB-19427.” for “[^18F]2.”, “[^18F]PSB-19427” for “[^18F]2”, “al.^28” for “al.^17”"}, "[4]": {"test_system": "s.c. MDA-MB-231 xenografts", "experiment": "In vivo PET imaging in MDA-MB-231 tumor bearing mice", "design": "species or system NSG mice", "method": "Animal models. All animal experiments were performed in accordance with the legal requirements of the European Community (Directive 2010/63/EU) and the corresponding German Animal Welfare Law (TierSchG, TierSchVersV) and were approved by the local authorizing agency (State Office for Nature, Environment and Consumer Protection North Rhine-Westphalia). MDA-MB-231 or AsPC-1 cells were cultivated in RPMI supplemented with 10% fetal calf serum and 100 U/mL penicillin and 100 μg/mL streptomycin. 5×10^6 MDA-MB-231 or AsPC-1 cells were injected subcutaneously into the shoulder region of 10 to 12 week old NSG mice (NOD.Cg-Prkdcscidll2rgtm1Wjl/SzJ, Charles River Laboratories). Two tumors were inoculated per animal and growth was followed by digital caliper measurements (volume=½ (length*width^2)).\nIn vivo Imaging. Adult C57bl/6 (biodistribution study, 21±1 g) or tumor bearing NSG mice (24±3 g) were anesthetized by isoflurane/O2 and one lateral tail vein was cannulated using a 27 G needle connected to 15 cm polyethylene catheter tubing. ^18F-PSB-19427 (˜450 kBq/g body weight) were injected as a bolus (50 μL compound flushed with 50 μL saline) via the tail vein and subsequent PET scanning was performed. In the blocking studies, a subgroup of tumor-bearing mice was injected with ˜1000 fold excess of unlabeled PSB-19427 10 minutes prior to radiotracer injection. […] Three-dimensional volumes of interest (VOIs) were defined over the respective organs in CT data sets, transferred to the coregistered PET data, and analyzed quantitatively. Regional uptake was calculated as a percentage of injected dose by dividing counts per milliliter in the VOI by total counts in the mouse multiplied by 100 (% ID/mL).\nas §1"}}, "data": [{"smiles": "C#Cc1ccc(CN(CCC)c2nc(Cl)nc3c2ncn3[C@@H]2O[C@H](COP(=O)(O)CP(=O)(O)O)C(O)C2O)cc1", "note": "(stereo partly drawn) [Compound 1]", "values": [{"measurement": "Ki", "setting": "[1]", "value": "0.372 ± 0.03", "unit": "nM"}]}, {"smiles": "CCCN(Cc1ccc(-c2cn(CC[18F])nn2)cc1)c1nc(Cl)nc2c1ncn2C1O[C@H](COP(=O)(O)CP(=O)(O)O)C(O)C1O", "note": "(stereo partly drawn) [[^18F]2, [^18F]-[((2R,3S,4R,5R)-5-{2-chloro-6-[(4-{1-[2-(fluoro)ethyl]-1H-1,2,3-triazol-4-yl}benzyl)(propyl)amino]-9H-purin-9-yl}-3,4-dihydroxytetrahydrofuran-2-yl)methoxy]methylenebisphosphonic acid]", "values": [{"measurement": "change of tumor-to-muscle ratios in blocking study", "setting": "[2]; AsPC-1, pretreating with PSB-12651 (7) 10 min before tracer injection", "value": "significant decrease of tumor-to-muscle ratios"}, {"measurement": "accumulation of the tracer in the tumor xenografts as compared to muscle tissue", "setting": "[2]; PET 4 h p.i., i.v., AsPC-1 xenografts", "value": "pronounced accumulation"}, {"measurement": "factor of increase of measured solubility in PBS-buffer (1-octanol/PBS) versus clog P", "setting": "[3]; compared to clog P 0.22", "value": 2.2}, {"measurement": "factor of increase of measured solubility in PBS-buffer (1-octanol/PBS) versus clog P", "setting": "[3]; compared to clog P 0.47", "value": 3.9}, {"measurement": "logD", "setting": "[3]; octan-1-ol/PBS buffer, 1-octanol/PBS pH 7.4", "value": "-0.12 ± 0.03"}, {"measurement": "change of tumor-to-muscle ratios in blocking study", "setting": "[4]; MDA-MB-231, pretreating with unlabeled compound 2 10 min before tracer injection", "value": "significant decrease of tumor-to-muscle ratios"}, {"measurement": "accumulation in the tumor as compared to FDG", "setting": "[4]; MDA-MB-231 tumors, 90 min and 4 h, especially in relation to muscle uptake", "value": "higher accumulation"}, {"measurement": "accumulation of the tracer in the tumor xenografts as compared to muscle tissue", "setting": "[4]; PET 4 h p.i., i.v., MDA-MB-231 xenografts", "value": "pronounced accumulation"}]}]}
